Experimental data: patent US20120029177A1, “HETEROCYCLE-AMINO ACID DERIVATIVES FOR TARGETING CANCER TISSUE AND RADIOACTIVE OR NON-RADIOACTIVE LABELED COMPOUNDS THEREOF” (SNU R&DB FOUNDATION, priority 2009, published 2012)
Blank lines part the entries; values can stand above or below the compound they belong to.

Experiments:
[1] = tested on: SNU-C4 xenografted nude mice; test: Biodistribution study in SNU-C4 xenografted nude mice after intravenous injection; format: in vivo, mouse; details: for % ID/g Tumor: SNU-C4 tumor; for tumor uptake compared with the control heterocyclic compound (in words): SNU-C4 xenografted nude mice, 10 min to 2 hr
Procedure: Human colon cancer cell line SNU-C4 was cultured in RPMI1640 media containing 10% fetal bovine serum and harvested using trypsin. The cells were washed using 10 mL PBS and centrifugation at 3,000 rpm. Each nude mouse was injected with 2×10^5 cells/0.1 mL on the right shoulder subcutaneously. On 13 days post-injection, each 10 μCi/0.1 mL of ^68Ga labeled agent was injected into the xenografted mice through the tail vein. The injected mice were sacrificed at 10 min, 30 min, 1 hr, and 2 hr, cancer, blood, muscle, heart, liver, spleen, stomach, intestine, and bone were obtained, weighed, and their radioactivities were counted. The results were expressed as percentages of injected dose per gram tissue (% ID/g).

CT-26 cells = test: In vitro cell uptake, CT-26 (FIG. 1b); format: cell-based, mouse; details: controls ^68Ga-DO2A, ^68Ga-DO3A
Procedure: Human colon cancer cell line SNU-C4 was purchased from Korea Cell Line Bank (KCLB). Human thyroid cell line ARO, human liver cancer cell line Hep3B, human glioma cell line U251MG and U87MG, and mouse colon cell line CT-26 were purchased from American Type Culture Collection (ATCC). SNU-C4 and ARO were culture in RPMI1640 (Welgene Inc., Korea) and Hep3B, U251 MG, U87MG, and CT-26 were cultured in DMEM (Welgene Inc., Korea). Penicillin, streptomycin and amphotericin B (10,000 IU/mL, 10 mg/mL and 25 μg/mL, respectively, Mediatech Inc., U.S.A.) 1% mixture and fetal bovine serum (Welgene Inc., Korea) were added to all cell culture media. Cell culture was done in 37° C. incubator with supply of 5% CO2.
About 1.8×10^5 cells/mL CT-26 and 1.2×10^5 cells/mL U87MG were put into 24-well incubation plate and incubated for 20 hr. When the each well was about 80% confluent with cells, 296 kBq/0.5 mL of ^68Ga labeled agent was added to each well. Culture supernatants were discarded at each time point and cells were washed with ice-cooled Hank's balanced salt solution (HBSS, pH7.3, Gibco, U.S.A.) 2 times. The cells were dissolved by 0.5% sodium dodecylsulfate (SDS), recovered and counted using a gamma counter (Packard, Can berra Co., U.S.A.). Total protein amount in each sample was measured by bicinchonic acid (BCA, Pierce, U.S.A.) method.

[2] = tested on: SNU-C4 xenografted nude mice; test: PET imaging of tumor xenografted mice; format: in vivo, mouse; details: PET at 1 and 2 hr post-injection, FIG. 2
Procedure: Human colon cancer cell line SNU-C4 was cultured in RPMI1640 media containing 10% fetal bovine serum and harvested using trypsin. The cells were washed using 10 mL PBS and centrifugation at 3,000 rpm. Each nude mouse was injected with 2×10^5 cells/0.1 mL on the right shoulder subcutaneously. On 14 days post-injection, each 10 μCi/0.1 mL of ^68Ga labeled agent was injected into the xenografted mice through the tail vein. The injected mice were anesthetized using 2% isoflurane, PET images were obtained at 1 and 2 hr post-injection using rodent R4, microPET scanner (Concorde Microsystem Inc.). The images were analyzed using ASIPro software (Concorde Microsystem Inc.).

[3] = 10 min after intravenous injection
[4] = 30 min after intravenous injection
[5] = 1 hr after intravenous injection
[6] = 2 hr after intravenous injection

% ID/g Tumor [1, 3]: 3.22 ± 0.90 % ID/g
% ID/g Tumor [1, 4]: 2.49 ± 0.40 % ID/g
% ID/g Tumor [1, 5]: 2.44 ± 0.46 % ID/g
% ID/g Tumor [1, 6]: 2.98 ± 0.58 % ID/g
tumor uptake compared with the control heterocyclic compound (in words) [1]: higher and increasing by time
% ID/g Blood [1, 3]: 11.12 ± 0.49 % ID/g
% ID/g Blood [1, 4]: 8.35 ± 0.29 % ID/g
% ID/g Blood [1, 5]: 7.97 ± 1.29 % ID/g
% ID/g Blood [1, 6]: 6.07 ± 1.13 % ID/g
% ID/g Bone [1, 3]: 4.06 ± 0.44 % ID/g
% ID/g Bone [1, 4]: 3.63 ± 0.49 % ID/g
% ID/g Bone [1, 5]: 4.73 ± 0.69 % ID/g
% ID/g Bone [1, 6]: 5.00 ± 2.41 % ID/g
% ID/g Heart [1, 3]: 2.70 ± 0.18 % ID/g
% ID/g Heart [1, 4]: 1.80 ± 0.22 % ID/g
% ID/g Heart [1, 5]: 1.69 ± 0.40 % ID/g
% ID/g Heart [1, 6]: 1.30 ± 0.40 % ID/g
% ID/g Intestine [1, 3]: 2.48 ± 0.13 % ID/g
% ID/g Intestine [1, 4]: 1.74 ± 0.14 % ID/g
% ID/g Intestine [1, 5]: 1.87 ± 0.33 % ID/g
% ID/g Intestine [1, 6]: 4.38 ± 1.14 % ID/g
% ID/g Kidney [1, 3]: 60.06 ± 14.07 % ID/g
% ID/g Kidney [1, 4]: 9.10 ± 2.19 % ID/g
% ID/g Kidney [1, 5]: 4.82 ± 0.99 % ID/g
% ID/g Kidney [1, 6]: 6.06 ± 2.27 % ID/g
% ID/g Liver [1, 3]: 2.58 ± 0.07 % ID/g
% ID/g Liver [1, 4]: 2.30 ± 0.13 % ID/g
% ID/g Liver [1, 5]: 2.35 ± 0.25 % ID/g
% ID/g Liver [1, 6]: 2.52 ± 0.41 % ID/g
% ID/g Lung [1, 3]: 13.60 ± 2.37 % ID/g
% ID/g Lung [1, 4]: 9.35 ± 1.00 % ID/g
% ID/g Lung [1, 5]: 8.40 ± 1.17 % ID/g
% ID/g Lung [1, 6]: 8.04 ± 0.83 % ID/g
% ID/g Muscle [1, 3]: 3.52 ± 0.42 % ID/g
% ID/g Muscle [1, 4]: 2.03 ± 0.41 % ID/g
% ID/g Muscle [1, 5]: 1.38 ± 0.39 % ID/g
% ID/g Muscle [1, 6]: 1.33 ± 0.48 % ID/g
% ID/g Spleen [1, 3]: 2.59 ± 0.30 % ID/g
% ID/g Spleen [1, 4]: 2.33 ± 0.15 % ID/g
% ID/g Spleen [1, 5]: 2.33 ± 0.44 % ID/g
% ID/g Spleen [1, 6]: 2.19 ± 0.35 % ID/g
% ID/g Stomach [1, 3]: 1.97 ± 0.18 % ID/g
% ID/g Stomach [1, 4]: 1.53 ± 0.17 % ID/g
% ID/g Stomach [1, 5]: 1.53 ± 0.37 % ID/g
% ID/g Stomach [1, 6]: 11.42 ± 5.04 % ID/g
Compound: N[C@@H](CN1CCN(CC(=O)[O-])CCN(CC(=O)[O-])CCN(CC(=O)[O-])CC1)C(=O)O.[68Ga+3] (stereo in doubt) [^68Ga-DO3A-ala]
tumor cell uptake versus control agents (CT-26 cells): significantly increase tumor cell uptakes
tumor uptake in PET images [2]: high tumor uptakes

% ID/g Tumor [1, 3]: 2.88 ± 0.39 % ID/g
% ID/g Tumor [1, 4]: 2.30 ± 0.53 % ID/g
% ID/g Tumor [1, 5]: 1.05 ± 0.33 % ID/g
% ID/g Tumor [1, 6]: 1.08 ± 0.18 % ID/g
tumor uptake compared with the control heterocyclic compound (in words) [1]: always higher than that of ^68Ga-DO2A
% ID/g Blood [1, 3]: 7.75 ± 0.97 % ID/g
% ID/g Blood [1, 4]: 5.26 ± 1.36 % ID/g
% ID/g Blood [1, 5]: 3.12 ± 0.89 % ID/g
% ID/g Blood [1, 6]: 1.94 ± 0.24 % ID/g
% ID/g Bone [1, 3]: 2.60 ± 0.56 % ID/g
% ID/g Bone [1, 4]: 2.22 ± 0.49 % ID/g
% ID/g Bone [1, 5]: 1.57 ± 0.52 % ID/g
% ID/g Bone [1, 6]: 1.06 ± 0.52 % ID/g
% ID/g Heart [1, 3]: 1.98 ± 0.06 % ID/g
% ID/g Heart [1, 4]: 1.19 ± 0.34 % ID/g
% ID/g Heart [1, 5]: 0.79 ± 0.34 % ID/g
% ID/g Heart [1, 6]: 0.45 ± 0.10 % ID/g
% ID/g Intestine [1, 3]: 1.91 ± 0.33 % ID/g
% ID/g Intestine [1, 4]: 1.40 ± 0.38 % ID/g
% ID/g Intestine [1, 5]: 3.91 ± 2.96 % ID/g
% ID/g Intestine [1, 6]: 0.77 ± 0.03 % ID/g
% ID/g Kidney [1, 3]: 13.33 ± 4.30 % ID/g
% ID/g Kidney [1, 4]: 14.50 ± 8.89 % ID/g
% ID/g Kidney [1, 5]: 4.71 ± 2.26 % ID/g
% ID/g Kidney [1, 6]: 3.99 ± 0.54 % ID/g
% ID/g Liver [1, 3]: 1.74 ± 0.25 % ID/g
% ID/g Liver [1, 4]: 1.46 ± 0.27 % ID/g
% ID/g Liver [1, 5]: 1.39 ± 0.47 % ID/g
% ID/g Liver [1, 6]: 0.99 ± 0.04 % ID/g
% ID/g Lung [1, 3]: 8.45 ± 0.98 % ID/g
% ID/g Lung [1, 4]: 8.23 ± 2.41 % ID/g
% ID/g Lung [1, 5]: 4.21 ± 1.47 % ID/g
% ID/g Lung [1, 6]: 3.23 ± 0.49 % ID/g
% ID/g Muscle [1, 3]: 2.08 ± 0.43 % ID/g
% ID/g Muscle [1, 4]: 1.81 ± 0.77 % ID/g
% ID/g Muscle [1, 5]: 0.87 ± 0.40 % ID/g
% ID/g Muscle [1, 6]: 0.49 ± 0.08 % ID/g
% ID/g Spleen [1, 3]: 1.61 ± 0.26 % ID/g
% ID/g Spleen [1, 4]: 1.30 ± 0.29 % ID/g
% ID/g Spleen [1, 5]: 1.24 ± 0.34 % ID/g
% ID/g Spleen [1, 6]: 0.82 ± 0.09 % ID/g
% ID/g Stomach [1, 3]: 2.48 ± 0.62 % ID/g
% ID/g Stomach [1, 4]: 1.49 ± 0.62 % ID/g
% ID/g Stomach [1, 5]: 12.82 ± 7.46 % ID/g
% ID/g Stomach [1, 6]: 0.38 ± 0.05 % ID/g
Compound: NC(CN1CCN(CC(=O)[O-])CCNCCN(CC(=O)[O-])CC1)C(=O)[O-].[68Ga+3] (stereo not shown) [^68Ga-DO2A-ala]
tumor cell uptake versus control agents (CT-26 cells): significantly increase tumor cell uptakes
tumor uptake in PET images [2]: high tumor uptakes
